target: T1, PLK1 (Homo sapiens, UniProt P53350); test: Biochemical Characterization Assay: HTRF kinase assay, GST-PLK1 phosphorylation of GST-p53; conditions: GST-PLK1, GST-p53 substrate
T1 construct: Full-length, active GST-PLK1 is purified from Sf9 insect cells; made in house; host or cells: Sf9 insect cells
In short: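 HTRF read-out of p53 phosphorylation: after EDTA stop, anti-phospho-p53 antibody bound 30 min at 37 °C in HEPES pH 7 buffer, with Eu-anti-rabbit/APC-anti-GST detection. Kinase step used full-length Sf9-expressed GST-PLK1 (3 ug/mL) and E. coli GST-p53 substrate, 35 min at 37 °C.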

T1 sequence (P53350 whole entry): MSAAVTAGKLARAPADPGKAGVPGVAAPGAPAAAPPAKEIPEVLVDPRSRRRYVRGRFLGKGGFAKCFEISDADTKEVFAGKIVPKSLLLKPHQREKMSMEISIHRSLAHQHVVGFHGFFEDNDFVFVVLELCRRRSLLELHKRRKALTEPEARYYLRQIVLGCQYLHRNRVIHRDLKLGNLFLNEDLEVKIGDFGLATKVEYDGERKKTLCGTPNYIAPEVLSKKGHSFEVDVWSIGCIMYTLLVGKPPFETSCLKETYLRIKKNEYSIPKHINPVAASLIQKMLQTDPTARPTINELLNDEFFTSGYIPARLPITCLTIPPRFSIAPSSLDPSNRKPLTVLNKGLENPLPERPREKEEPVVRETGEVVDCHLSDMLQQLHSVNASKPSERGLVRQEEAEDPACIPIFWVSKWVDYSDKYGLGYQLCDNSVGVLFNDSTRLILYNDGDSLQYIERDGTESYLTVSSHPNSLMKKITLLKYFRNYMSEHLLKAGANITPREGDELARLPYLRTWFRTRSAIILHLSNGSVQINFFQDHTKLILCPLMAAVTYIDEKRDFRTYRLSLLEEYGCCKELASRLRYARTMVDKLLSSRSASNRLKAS

Structure (SMILES)	IC50
CCOc1cc(C(=O)NC2CCNCC2)ccc1Nc1ncc2c(n1)N(C1CCCC1)CC(F)(F)C(=O)N2C [Example I-222, 4-(9-cyclopentyl-7,7-difluoro-5-methyl-6-oxo-6,7,8,9-tetrahydro-5H-pyrimido[4,5-b][1,4]diazepin-2-ylamino)-3-ethoxy-N-piperidin-4-yl-benzamide]	0.001 to 0.05 µM
CCOc1cc(C(N)=O)ccc1Nc1ncc2c(n1)N(C1CCCC1)CC(F)(F)C(=O)N2C [Example I-223, 4-(9-cyclopentyl-7,7-difluoro-5-methyl-6-oxo-6,7,8,9-tetrahydro-5H-pyrimido[4,5-b][1,4]diazepin-2-ylamino)-3-ethoxy-benzamide]	0.001 to 0.05 µM
CCN1CCC(NC(=O)c2ccc(Nc3ncc4c(n3)N(C3CCCC3)CC(F)(F)C(=O)N4C)c(F)c2)CC1 [Example I-224, 4-(9-cyclopentyl-7,7-difluoro-5-methyl-6-oxo-6,7,8,9-tetrahydro-5H-pyrimido[4,5-b][1,4]diazepin-2-ylamino)-N-(1-ethyl-piperidin-4-yl)-3-fluoro-benzamidemide]	0.001 to 0.05 µM
CN1C(=O)C(F)(F)CN(C2CCCC2)c2nc(Nc3ccc(C(=O)NC4CCOCC4)cc3F)ncc21 [Example I-225, 4-(9-cyclopentyl-7,7-difluoro-5-methyl-6-oxo-6,7,8,9-tetrahydro-5H-pyrimido[4,5-b][1,4]diazepin-2-ylamino)-3-fluoro-N-(tetrahydro-pyran-4-yl)-benzamide]	0.001 to 0.05 µM
CN(C)CCNC(=O)c1ccc(Nc2ncc3c(n2)N(C2CCCC2)CC(F)(F)C(=O)N3C)c(F)c1 [Example I-226, 4-(9-cyclopentyl-7,7-difluoro-5-methyl-6-oxo-6,7,8,9-tetrahydro-5H-pyrimido[4,5-b][1,4]diazepin-2-ylamino)-N-(2-dimethylamino-ethyl)-3-fluoro-benzamide]	0.001 to 0.05 µM
CN(C)CCCNC(=O)c1ccc(Nc2ncc3c(n2)N(C2CCCC2)CC(F)(F)C(=O)N3C)c(F)c1 [Example I-227, 4-(9-cyclopentyl-7,7-difluoro-5-methyl-6-oxo-6,7,8,9-tetrahydro-5H-pyrimido[4,5-b][1,4]diazepin-2-ylamino)-N-(3-dimethylamino-propyl)-3-fluoro-benzamide]	0.001 to 0.05 µM
CNC(=O)c1ccc(Nc2ncc3c(n2)N(C2CCCC2)CC(F)(F)C(=O)N3C)c(F)c1 [Example I-228, 4-(9-cyclopentyl-7,7-difluoro-5-methyl-6-oxo-6,7,8,9-tetrahydro-5H-pyrimido[4,5-b][1,4]diazepin-2-ylamino)-3-fluoro-N-methyl-benzamide]	0.001 to 0.05 µM

Now from value to compound:

IC50	Structure (SMILES)
0.001 to 0.05 µM	CN1C(=O)C(F)(F)CN(C2CCCC2)c2nc(Nc3ccc(C(=O)NC4CCN(C(=O)OC(C)(C)C)CC4)cc3F)ncc21 [Example I-229, 4-[4-(9-cyclopentyl-7,7-difluoro-5-methyl-6-oxo-6,7,8,9-tetrahydro-5H-pyrimido[4,5-b][1,4]diazepin-2-ylamino)-3-fluoro-benzoylamino]-piperidine-1-carboxylic acid tert-butyl ester]
0.001 to 0.05 µM	CN1C(=O)C(F)(F)CN(C2CCCC2)c2nc(Nc3ccc(C(=O)NC4CCNCC4)cc3F)ncc21 [Example I-230, 4-(9-cyclopentyl-7,7-difluoro-5-methyl-6-oxo-6,7,8,9-tetrahydro-5H-pyrimido[4,5-b][1,4]diazepin-2-ylamino)-3-fluoro-N-piperidin-4-yl-benzamide]
0.001 to 0.05 µM	CN1C(=O)C(F)(F)CN(C2CCCC2)c2nc(Nc3ccc(C(N)=O)cc3F)ncc21 [Example I-231, 4-(9-cyclopentyl-7,7-difluoro-5-methyl-6-oxo-6,7,8,9-tetrahydro-5H-pyrimido[4,5-b][1,4]diazepin-2-ylamino)-3-fluoro-benzamide]
0.001 to 0.05 µM	CN1CCC(NC(=O)c2cc(F)c(Nc3ncc4c(n3)N(C3CCCC3)CC(F)(F)C(=O)N4C)cc2F)CC1 [Example I-233, 4-(9-cyclopentyl-7,7-difluoro-5-methyl-6-oxo-6,7,8,9-tetrahydro-5H-pyrimido[4,5-b][1,4]diazepin-2-ylamino)-2,5-difluoro-N-(1-methyl-piperidin-4-yl)-benzamide]
